Assay results as given in US20070172509A1, “Drug Delivery System for Retarding Release of Water Soluble Drugs” (Conor Medsystems, Inc., priority 2006, published 2007).
In brackets after ≈: the same amount, converted by molar mass.

What was measured:
[1] = Film morphology of agent in PLGA 85/15 film cast from anisole; type: physicochemical; set-up: key: A—Amorphous; D—Dispersion; C—Crystalline
[2] = cited from earlier work
[3] = 5% agent in PLGA 85/15 film cast from anisole
[4] = 10% agent in PLGA 85/15 film cast from anisole
[5] = 25% agent in PLGA 85/15 film cast from anisole
[6] = 50% agent in PLGA 85/15 film cast from anisole
[7] = 75% agent in PLGA 85/15 film cast from anisole
[8] = 90% agent in PLGA 85/15 film cast from anisole

Film Morphology [1, 3]	Film Morphology [1, 4]	Film Morphology [1, 5]	Film Morphology [1, 6]	Film Morphology [1, 7]	Film Morphology [1, 8]	SMILES	water solubility [2]
–	A	Mixed	C	–	–	CC[C@@H]1/C=C(\C)C[C@H](C)C[C@H](OC)[C@H]2O[C@@](O)(C(=O)C(=O)N3CCCC[C@H]3C(=O)O[C@H](/C(C)=C/[C@@H]3CC[C@H](Cl)[C@H](OC)C3)[C@H](C)[C@@H](O)CC1=O)[C@H](C)C[C@@H]2OC [Pimecrolimus, reference compound]	–
A	A	Mixed	C	C	C	CCCOC(=O)c1ccc(O)cc1 [Propyl 4-hydroxybenzoate]	–

The next lines start with the compound.

SMILES	Film Morphology [1, 3]	Film Morphology [1, 4]	Film Morphology [1, 5]	Film Morphology [1, 6]	Film Morphology [1, 7]	Film Morphology [1, 8]	water solubility [2]
Cc1cc(C(C)(C)C)c(O)c(C(C)(C)C)c1 [BHT, butylated hydroxy toluene]	A	A	A	D	Mixed	C	–
O=C(OCc1ccccc1)c1ccccc1 [Benzyl Benzoate]	A	A	–	–	–	–	–
CCCCOC(=O)c1ccc(O)cc1 [Butyl 4-Hydroxybenzoate]	A	A	A	C	C	C	–
Nc1nc(Cl)nc2c1ncn2[C@H]1C[C@H](O)[C@@H](CO)O1 [cladribine]	–	–	–	–	–	–	200 µg/mL (≈ 700 µM)
